The values below come from patent US12133909B2, “Use of evodone or a derivative thereof as a cooling agent” (ROBERTET S.A., priority 2019, dated 2024).

Test [1] in a line: Cooling effect of creams rated on a 0 to 3 scale after application onto the forearms. The class given is in vivo, human. Conditions: 1% in cream, forearm sensory score. As for the experimental part:
To measure the cooling effect, 100 mg of one of the creams 1 to 4 or of a placebo are applied onto the inner side of both forearms of persons who have agreed to test the product. After one minute, each participant is asked to rate the cooling effect on a scale of 0 to 3 (i.e. score), with 3 being the maximum effect.
Each cream (including the placebo) is applied randomly and blindly to the forearms of 17 people.

Test [2] can be described thus: Skin temperature by thermal camera after application of creams on the back. The class given is in vivo, human. The conditions noted are these: 1% in cream. The procedure: For this study, the cooling effect of 5 compositions containing different cooling agents is evaluated in vivo according to the following protocol.
22 female subjects aged from 18 to 63 were selected. On the back of each subject, between the two scapulas, six areas of 3 cm×2.5 cm are delimited. On 5 areas chosen each time randomly, 15 mg of the compositions to be tested are applied. Nothing is applied onto the sixth area (i.e. control).
From the time of application of the creams (T0), the skin temperature of the different zones is measured on each subject using a thermal camera (Thermovision SC6000HS (Flirsystems)—resolution 640×512—frequency 125 Hz) at the following times: T0, T0+15 s, T0+30 s, T0+45 s, T0+1 min, T0+1 min30 s, T0+2 min, T0+3 min, T0+4 min, T0+5 min, T0+6 min, T0+8 min and T0+10 min. The measurements are performed at 21° C.±1.5° C., the subject lying on their stomach and motionless. The temperatures are measured with an accuracy of around 0.10° C.
A variance test (ANOVA) is used to compile and validate the results. […]
If these two conditions are met, the statistical analysis allowing comparing the parameters measured at the different times is conducted by a one-factor variance analysis (ANOVA) test on repeated measurements. […]

As for `Cc1coc2c1C(=O)CC(C)C2` (stereo not drawn) [evodone, 6-dimethyl-6,7-dihydro-5H-1-benzofuran-4-one], in test [1], the “Cooling effect compared with citriodiol or cubebol” value is reported as “cooling effect similar to that which can be provided by molecules such as citriodiol or cubebol” and the “Cooling effect compared with menthyl lactate (Frescolat ML)” value is “significantly greater than that obtained with menthyl lactate”. Further, in test [2], the “Cooling effect compared with menthyl lactate, citriodiol or cubebol” value is “cooling effect similar to that which can be provided by molecules such as menthyl lactate”.
